Values of other authors as cited in patent EP0086468A2, “Oral anti-diabetic preparation” (HOECHST UK LIMITED, priority 1982, dated 1983).

Test system: plasma glucose
Settings: intravenous bolus injection, published data

COc1ccc(Cl)cc1C(=O)NCCc1ccc(S(=O)(=O)NC(=O)NC2CCCCC2)cc1 [glibenclamide]
nadir in plasma glucose levels, time after injection: about 40 minutes
